Target: JAK1 (Homo sapiens (Human), UniProt P23458)
Test: Analysis of JAK1 activity inhibition ability (ADP-Glo Kinase Assay)
Assay type: biochemical
Conditions: JAK1 enzyme, ADP-Glo luminescence, ATP 250 uM, IRS-itide substrate, 30° C. 40 minutes; read-out: IC50
Outline: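 ADP-Glo luminescence read-out of ADP production, with IC50 taken as the concentration halving JAK1 activity relative to control. Enzyme was incubated 40 min at 30 °C with compound, IRS-itide (40 ng/mL) and ATP (250 uM), concentrations as prepared in pH 7.5 Tris-HCl/MgCl2/BSA/DTT buffer.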

Sequence of JAK1 (P23458 whole entry): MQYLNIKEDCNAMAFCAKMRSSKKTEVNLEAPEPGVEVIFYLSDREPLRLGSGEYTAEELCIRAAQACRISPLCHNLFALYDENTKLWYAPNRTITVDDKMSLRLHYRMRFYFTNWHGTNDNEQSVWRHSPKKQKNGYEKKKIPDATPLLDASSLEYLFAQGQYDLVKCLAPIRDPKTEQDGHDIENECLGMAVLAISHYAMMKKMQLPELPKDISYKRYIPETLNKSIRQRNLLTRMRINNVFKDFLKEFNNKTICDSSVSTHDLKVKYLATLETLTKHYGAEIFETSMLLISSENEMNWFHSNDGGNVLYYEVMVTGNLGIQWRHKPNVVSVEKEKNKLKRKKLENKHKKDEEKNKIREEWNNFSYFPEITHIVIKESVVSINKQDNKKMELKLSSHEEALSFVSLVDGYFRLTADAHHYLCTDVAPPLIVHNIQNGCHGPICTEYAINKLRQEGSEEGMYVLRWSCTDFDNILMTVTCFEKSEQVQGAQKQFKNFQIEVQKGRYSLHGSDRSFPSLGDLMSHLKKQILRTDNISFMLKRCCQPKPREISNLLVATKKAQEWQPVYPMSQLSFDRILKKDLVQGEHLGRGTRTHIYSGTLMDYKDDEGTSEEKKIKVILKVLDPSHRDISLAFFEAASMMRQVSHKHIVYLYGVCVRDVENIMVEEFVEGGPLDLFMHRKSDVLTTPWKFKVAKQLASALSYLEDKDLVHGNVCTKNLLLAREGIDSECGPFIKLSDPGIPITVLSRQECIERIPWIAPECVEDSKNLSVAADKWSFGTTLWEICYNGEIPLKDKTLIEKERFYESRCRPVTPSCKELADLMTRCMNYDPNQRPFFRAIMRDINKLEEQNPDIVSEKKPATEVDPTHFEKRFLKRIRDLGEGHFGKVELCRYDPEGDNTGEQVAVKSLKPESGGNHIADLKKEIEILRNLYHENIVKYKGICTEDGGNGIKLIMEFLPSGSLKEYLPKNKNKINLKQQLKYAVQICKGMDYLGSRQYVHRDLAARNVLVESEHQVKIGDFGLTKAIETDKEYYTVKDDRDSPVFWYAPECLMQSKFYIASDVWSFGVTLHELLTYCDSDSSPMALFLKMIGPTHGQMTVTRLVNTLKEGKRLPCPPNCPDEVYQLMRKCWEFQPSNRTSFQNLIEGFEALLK

| IC50 | SMILES |
| --- | --- |
| 20 to 200 nM | O=C(Nc1cc(C2=CCN(S(=O)(=O)c3ccc(F)c(F)c3)CC2)c2cc[nH]c2n1)C1CC1 [Example 173, N-(4-(1-((3,4-difluorophenyl)sulfonyl)-1,2,3,6-tetrahydropyridin-4-yl)-1H-pyrrolo[2,3-b]pyridin-6-yl)cyclopropanecarboxamide] |
| > 200 nM | CCS(=O)(=O)N1CC=C(c2cc(NC(=O)C3CC3)nc3[nH]ccc23)C(C)(C)C1 [Example 179, N-(4-(1-(ethylsulfonyl)-3,3-dimethyl-1,2,3,6-tetrahydropyridin-4-yl)-1H-pyrrolo[2,3-b]pyridin-6-yl)cyclopropanecarboxamide] |
| 20 to 200 nM | CC1(C)CN(S(=O)(=O)CCCC#N)CC=C1c1cc(NC(=O)C2CC2)nc2[nH]ccc12 [Example 180, N-(4-(1-((3-cyanopropyl)sulfonyl)-3,3-dimethyl-1,2,3,6-tetrahydropyridin-4-yl)-1H-pyrrolo[2,3-b]pyridin-6-yl)cyclopropanecarboxamide] |
| < 20 nM | O=C(Nc1nc(-c2ccc(NS(=O)(=O)c3ccc(F)c(F)c3)cc2)c2cc[nH]c2n1)C1CC1 [Example 181, N-(4-(4-((3,4-difluorophenyl)sulfonamido)phenyl)-7H-pyrrolo[2,3-d]pyrimidin-2-yl)cyclopropanecarboxamide] |
| 20 to 200 nM | CCS(=O)(=O)Nc1ccc(-c2nc(NC(=O)C3CC3)nc3[nH]ccc23)cc1 [Example 182, N-(4-(4-(ethylsulfonamido)phenyl)-7H-pyrrolo[2,3-d]pyrimidin-2-yl)cyclopropanecarboxamide] |
| < 20 nM | O=C(Nc1nc(-c2ccc(NS(=O)(=O)C3CCCCC3)cc2)c2cc[nH]c2n1)C1CC1 [Example 183, N-(4-(4-(cyclohexanesulfonamido)phenyl)-7H-pyrrolo[2,3-d]pyrimidin-2-yl)cyclopropanecarboxamide] |
| 20 to 200 nM | O=C(Nc1nc(-c2ccc(NS(=O)(=O)CCCC(F)(F)F)cc2)c2cc[nH]c2n1)C1CC1 [Example 184, N-(4-(4-((4,4,4-trifluorobutyl)sulfonamido)phenyl)-7H-pyrrolo[2,3-d]pyrimidin-2-yl)cyclopropanecarboxamide] |
| < 20 nM | O=C(Nc1nc(-c2ccc(NS(=O)(=O)CCCF)cc2)c2cc[nH]c2n1)C1CC1 [Example 185, N-(4-(4-((3-fluoropropyl)sulfonamido)phenyl)-7H-pyrrolo[2,3-d]pyrimidin-2-yl)cyclopropanecarboxamide] |
| 20 to 200 nM | N#CCCCS(=O)(=O)Nc1ccc(-c2nc(NC(=O)C3CC3)nc3[nH]ccc23)cc1 [Example 186, N-(4-(4-((3-cyanopropyl)sulfonamido)phenyl)-7H-pyrrolo[2,3-d]pyrimidin-2-yl)cyclopropanecarboxamide] |
| 20 to 200 nM | O=C(Nc1nc(-c2ccc(NS(=O)(=O)c3ccc(Cl)cc3)cc2)c2cc[nH]c2n1)C1CC1 [Example 187, N-(4-(4-((4-chlorophenyl)sulfonamido)phenyl)-7H-pyrrolo[2,3-d]pyrimidin-2-yl)cyclopropanecarboxamide] |
| < 20 nM | O=C(Nc1nc(-c2ccc(NS(=O)(=O)c3ccc(F)cc3)cc2)c2cc[nH]c2n1)C1CC1 [Example 188, N-(4-(4-((4-fluorophenyl)sulfonamido)phenyl)-7H-pyrrolo[2,3-d]pyrimidin-2-yl)cyclopropanecarboxamide] |
| 20 to 200 nM | O=C(Nc1nc(-c2ccc(NS(=O)(=O)c3ccc(Br)cc3)cc2)c2cc[nH]c2n1)C1CC1 [Example 189, N-(4-(4-((4-bromophenyl)sulfonamido)phenyl)-7H-pyrrolo[2,3-d]pyrimidin-2-yl)cyclopropanecarboxamide] |
| < 20 nM | CCCS(=O)(=O)Nc1ccc(-c2nc(NC(=O)C3CC3)nc3[nH]ccc23)cc1 [Example 190, N-(4-(4-(propylsulfonamido)phenyl)-7H-pyrrolo[2,3-d]pyrimidin-2-yl)cyclopropanecarboxamide] |
| < 20 nM | CCCCS(=O)(=O)Nc1ccc(-c2nc(NC(=O)C3CC3)nc3[nH]ccc23)cc1 [Example 191, N-(4-(4-(butylsulfonamido)phenyl)-7H-pyrrolo[2,3-d]pyrimidin-2-yl)cyclopropanecarboxamide] |
| < 20 nM | O=C(Nc1nc(-c2ccc(NS(=O)(=O)c3cccc(F)c3)cc2)c2cc[nH]c2n1)C1CC1 [Example 192, N-(4-(4-((3-fluorophenyl)sulfonamido)phenyl)-7H-pyrrolo[2,3-d]pyrimidin-2-yl)cyclopropanecarboxamide] |
| > 200 nM | CN(c1ccc(-c2nc(NC(=O)C3CC3)nc3[nH]ccc23)cc1)S(=O)(=O)c1ccc(F)c(F)c1 [Example 193, N-(4-(4-((3,4-difluoro-N-methylphenyl)sulfonamido)phenyl)-7H-pyrrolo[2,3-d]pyrimidin-2-yl)cyclopropanecarboxamide] |
| < 20 nM | O=C(Nc1nc(-c2ccc(NS(=O)(=O)CCC(F)(F)F)cc2)c2cc[nH]c2n1)C1CC1 [Example 194, N-(4-(4-((3,3,3-trifluoropropyl)sulfonamido)phenyl)-7H-pyrrolo[2,3-d]pyrimidin-2-yl)cyclopropanecarboxamide] |
| 20 to 200 nM | O=C(Nc1nc(-c2ccc(NS(=O)(=O)C3CCS(=O)(=O)CC3)cc2)c2cc[nH]c2n1)C1CC1 [Example 195, N-(4-(4-((1,1-dioxidotetrahydro-2H-thiopyran)-4-sulfonamido)phenyl)-7H-pyrrolo[2,3-d]pyrimidin-2-yl)cyclopropanecarboxamide] |
| 20 to 200 nM | O=C(Nc1nc(-c2ccc(NS(=O)(=O)C3CCS(=O)(=O)C3)cc2)c2cc[nH]c2n1)C1CC1 (stereo not drawn) [Example 196, N-(4-(4-((1,1-dioxidotetrahydrothiophene)-3-sulfonamido)phenyl)-7H-pyrrolo[2,3-d]pyrimidin-2-yl)cyclopropanecarboxamide] |
| > 200 nM | N#Cc1ccc(S(=O)(=O)Nc2ccc(-c3nc(NC(=O)C4CC4)nc4[nH]ccc34)cc2)cn1 [Example 197, N-(4-(4-((6-cyanopyridine)-3-sulfonamido)phenyl)-7H-pyrrolo[2,3-d]pyrimidin-2-yl)cyclopropanecarboxamide] |
| > 200 nM | Cn1cncc1S(=O)(=O)Nc1ccc(-c2nc(NC(=O)C3CC3)nc3[nH]ccc23)cc1 [Example 198, N-(4-(4-((1-methyl-1H-imidazole)-5-sulfonamido)phenyl)-7H-pyrrolo[2,3-d]pyrimidin-2-yl)cyclopropanecarboxamide] |
| > 200 nM | Cn1cc(S(=O)(=O)Nc2ccc(-c3nc(NC(=O)C4CC4)nc4[nH]ccc34)cc2)cn1 [Example 199, N-(4-(4-((1-methyl-1H-pyrazole)-4-sulfonamido)phenyl)-7H-pyrrolo[2,3-d]pyrimidin-2-yl)cyclopropanecarboxamide] |
| > 200 nM | NC(=O)c1ccc(S(=O)(=O)Nc2ccc(-c3nc(NC(=O)C4CC4)nc4[nH]ccc34)cc2)cc1 [Example 200, 4-(N-(4-(2-(cyclopropanecarboxamido)-7H-pyrrolo[2,3-d]pyrimidin-4-yl)phenyl)sulfamoyl)benzamide] |
| > 200 nM | CS(=O)(=O)Nc1ccc(-c2nc(NC(=O)C3CC3)nc3[nH]ccc23)cc1F [Example 201, N-(4-(3-fluoro-4-(methylsulfonamido)phenyl)-7H-pyrrolo[2,3-d]pyrimidin-2-yl)cyclopropanecarboxamide] |
| 20 to 200 nM | CCS(=O)(=O)Nc1ccc(-c2nc(NC(=O)C3CC3)nc3[nH]ccc23)cc1F [Example 202, N-(4-(4-(ethylsulfonamido)-3-fluorophenyl)-7H-pyrrolo[2,3-d]pyrimidin-2-yl)cyclopropanecarboxamide] |
| < 20 nM | O=C(Nc1nc(-c2ccc(NS(=O)(=O)CCCF)c(F)c2)c2cc[nH]c2n1)C1CC1 [Example 203, N-(4-(3-fluoro-4-((3-fluoropropyl)sulfonamido)phenyl)-7H-pyrrolo[2,3-d]pyrimidin-2-yl)cyclopropanecarboxamide] |
| 20 to 200 nM | N#CCCCS(=O)(=O)Nc1ccc(-c2nc(NC(=O)C3CC3)nc3[nH]ccc23)cc1F [Example 204, N-(4-(4-((3-cyanopropyl)sulfonamido)-3-fluorophenyl)-7H-pyrrolo[2,3-d]pyrimidin-2-yl)cyclopropanecarboxamide] |
| 20 to 200 nM | O=C(Nc1nc(-c2ccc(NS(=O)(=O)c3ccc(F)c(F)c3)c(F)c2)c2cc[nH]c2n1)C1CC1 [Example 205, N-(4-(4-((3,4-difluorophenyl)sulfonamido)-3-fluorophenyl)-7H-pyrrolo[2,3-d]pyrimidin-2-yl)cyclopropanecarboxamide] |

| SMILES | IC50 |
| --- | --- |
| CCS(=O)(=O)N1C2C=C(c3cc(NC(=O)C4CC4)nc4[nH]ccc34)CC1CC2 (stereo not drawn) [Example 174, N-(4-(8-(ethylsulfonyl)-8-azabicyclo[3.2.1]oct-2-en-3-yl)-1H-pyrrolo[2,3-b]pyridin-6-yl)cyclopropanecarboxamide] | 20 to 200 nM |
| O=C(Nc1cc(C2=CC3CCC(C2)N3S(=O)(=O)CCCF)c2cc[nH]c2n1)C1CC1 (stereo not drawn) [Example 175, N-(4-(8-((3-fluoropropyl)sulfonyl)-8-azabicyclo[3.2.1]oct-2-en-3-yl)-1H-pyrrolo[2,3-b]pyridin-6-yl)cyclopropanecarboxamide] | 20 to 200 nM |
| CCCS(=O)(=O)N1C2C=C(c3cc(NC(=O)C4CC4)nc4[nH]ccc34)CC1CC2 (stereo not drawn) [Example 176, N-(4-(8-(propylsulfonyl)-8-azabicyclo[3.2.1]oct-2-en-3-yl)-1H-pyrrolo[2,3-b]pyridin-6-yl)cyclopropanecarboxamide] | 20 to 200 nM |
| O=C(Nc1cc(C2=CC3CCC(C2)N3S(=O)(=O)C2CC2)c2cc[nH]c2n1)C1CC1 (stereo not drawn) [Example 177, N-(4-(8-(cyclopropylsulfonyl)-8-azabicyclo[3.2.1]oct-2-en-3-yl)-1H-pyrrolo[2,3-b]pyridin-6-yl)cyclopropanecarboxamide] | 20 to 200 nM |
| O=C(Nc1cc(C2=CC3CCC(C2)N3S(=O)(=O)c2ccc(F)c(F)c2)c2cc[nH]c2n1)C1CC1 (stereo not drawn) [Example 178, N-(4-(8-((3,4-difluorophenyl)sulfonyl)-8-azabicyclo[3.2.1]oct-2-en-3-yl)-1H-pyrrolo[2,3-b]pyridin-6-yl)cyclopropanecarboxamide] | 20 to 200 nM |
